Measurements reported in patent publication US20240247026A1, “SALTS AND CRYSTALLINE FORMS OF (3E) 3-[O-[(PHOSPHONOOXY)METHYL]OXIME]-PREGN-4-ENE-3,20-DIONE AND RELATED USES” (NeuroTrauma Sciences LLC, priority 2021, published 2024).
“Also recorded” adds a separate entry of the source.

Tests used:
[1] = One week (7-day) stability testing, HPLC purity and XRPD form; settings: for Loss in purity, one week stability: open vial
Description: After one week the solids were analyzed by XRPD for physical stability and HPLC for purity.
Seven day stability testing was carried out for Form III at 40° C./75% RH and ambient in open vials. 80° C. was carried out in an open 2 mL vial within a closed 20 mL vial.
The crystalline Bis-Sodium Pattern 3 material underwent 7-day stability tests at 40° C./75% RH (open vial); at ambient temperature, light and humidity (open vial) and 80° C. (sealed vial), with post-stability storage XRPD and HPLC analysis. The solubility of the bis-sodium pattern 3 salt was assessed.

[2] = Primary salt screen: XRPD re-analysis after drying at 40° C. and after storage at 40° C./75% RH; format: physicochemical; settings: for Remained pattern after 40° C.: dried at 40° C. for ca. two days; for Remained pattern after 40° C./78% RH: stored for ca. 24 h
Description: Salt crystallization screening was carried out as follows. Ca. […] The experiments were temperature cycled between ambient and 40° C. in 4 hour cycles for ca. 72 h. […] The solids were then isolated via centrifuge filter and analyzed by XRPD. Selected salts were dried at 40° ° C. for ca. two days and re-analyzed by XRPD. The salts were also characterized by TG/DSC and ^1H NMR.

[3] = Thermodynamic solubility studies in pH buffers; settings: shaken at ambient ca. 24 h
Description: Ca. 6 mg of the salt was weighed into a 2 mL vial and 50 μL aliquots of pH 7.4 PBS was added until dissolution was obtained. […] The preparations were analyzed by XRPD, PLM, TG/DSC, DSC, DVS, FTIR, ^1H and ^31P NMR and HPLC purity. One week stability testing was carried out, salt disproportionation and hydration studies and thermodynamic solubility.
Salt disproportionation and hydration studies were carried out as follows: Ca. 30 mg of each salt was suspended in 400 μL of the solvent systems shown in and shaken at ambient for ca. 24 h. Thermodynamic solubility studies were carried out as follows: Ca. 30 mg of each salt was suspended in 400 μL of the solvent systems shown in and shaken at ambient for ca. 24 h.

[4] = Dynamic vapour sorption (DVS); format: physicochemical
Description: Dynamic Vapour Sorption (DVS). Approximately 10-20 mg of sample was placed into a mesh vapour sorption balance pan and loaded into a DVS Advantage dynamic vapour sorption balance by Surface Measurement Systems. The sample was subjected to a ramping profile from 40-90% relative humidity (RH) at 10% increments, maintaining the sample at each step until a stable weight had been achieved (dm/dt 0.004%, minimum step length 30 minutes, maximum step length 500 minutes) at 25° C. After completion of the sorption cycle, the sample was dried using the same procedure to 0% RH and then a second sorption cycle back to 40% RH. Two cycles were performed. The weight change during the sorption/desorption cycles were plotted, allowing for the hygroscopic nature of the sample to be determined. XRPD analysis was then carried out on any solid retained.

[5] = Salt disproportionation and hydration studies; format: physicochemical; settings: ambient, ca. 24 h; for Hydration studies, outcome: 3 water activities; for Disproportionation experiment, outcome: water
[6] = 80° C., listed as N-(hydroxyethyl)pyrrolidine Pattern 2
[7] = listed as N-(hydroxyethyl)pyrrolidine Pattern 2

CC(=O)C1CCC2C3CCC4=CC(=NOCOP(=O)(O)O)CCC4(C)C3CCC12C.NC(CO)(CO)CO (stereo not shown) [Form III]
XRPD form after one week stability ([1]; 80° C.): Form IV

[K+] [Potassium]
Remained pattern after 40° C. [2]: Yes | Remained pattern after 40° C./78% RH [2]: No - Pattern 5 | Remained pattern after 40° C./78% RH ([2]; listed as potassium Pattern 1): Pattern 5

CCNC[C@H](O)[C@@H](O)[C@H](O)[C@H](O)CO [N-ethyl glucamine]
Remained pattern after 40° C. [2]: Yes | Remained pattern after 40° C./78% RH [2]: No. Mixture

CC(=O)[C@H]1CC[C@H]2[C@@H]3CCC4=CC(=NOCOP(=O)([O-])[O-])CC[C@]4(C)[C@H]3CC[C@]12C.[Na+].[Na+] [Sodium Pattern 3]
Decrease in purity, one week stability ([1]; 80° C.): Large drop in purity at 80 °C | XRPD form after one week stability ([1]; 80° C.): 40° C./75% RH, Pattern 5 | Decrease in purity, one week stability ([1]; 80° C., listed as sodium salt Pattern 3): large drop in purity | XRPD form after one week stability ([1]; all conditions tested): form conversion | Solubility ([3]; pH 7.4): <12 mg/mL at pH 7.4

CC(=O)[C@H]1CC[C@H]2[C@@H]3CCC4=CC(=NOCOP(=O)(O)O)CC[C@]4(C)[C@H]3CC[C@]12C.OCCN1CCCC1.OCCN1CCCC1 [Form V]
Post DVS XRPD form [4]: remain unchanged | DVS hygroscopic nature ([4]; 25° C.): hygroscopic | DVS total uptake at 90% RH ([4]; 25° C.): 19.0% | DVS total uptake at 90% RH as equivalents of water ([4]; 25° C.): 7.3 equivalents of water | DVS uptake between 40% RH and 90% RH ([4]; 25° C.): 17.8% | DVS uptake between 40% RH and 90% RH ([4]; 25° C., listed as N-(hydroxyethyl)pyrrolidine Pattern 2): 17.8% uptake between 40 & | Loss in purity, one week stability ([1]; 40° C./75% RH): No loss in purity | Loss in purity, one week stability ([1]; 40° C./75% RH, listed as N-(hydroxyethyl)pyrrolidine Pattern 2): No loss in purity at ambient | Decrease in purity, one week stability ([1]; 80° C.): 0.9 % Area | XRPD form after one week stability ([1]; 80° C.): some minor changes | Decrease in purity, one week stability [1, 6]: & 40° C./75% RH. 0.9% Area | XRPD form after one week stability [1, 6]: minor changes at 80 °C | XRPD form after one week stability ([1]; all conditions tested): Form V remained; also recorded: remain unchanged | XRPD form after one week stability ([1]; all conditions tested, listed as N-(hydroxyethyl)pyrrolidine Pattern 2): Remained Pattern 2, some | Loss in purity, one week stability ([1]; ambient light and temperature): No loss in purity | Loss in purity, one week stability ([1]; ambient light and temperature, listed as N-(hydroxyethyl)pyrrolidine Pattern 2): No loss in purity at ambient | Solubility ([3]; pH 7.4): > 45 mg/mL | Solubility ([3]; pH 8): > 39 mg/mL | Solubility ([3]; pH 8.5): > 39 mg/mL | Remained pattern after 40° C. [2]: Yes | Remained pattern after 40° C./78% RH [2]: Yes | Hydration studies, outcome [5]: Solutions were obtained; also recorded: no solids after 24 h | Hydration studies, outcome [5, 7]: Solutions obtained | Disproportionation experiment, outcome [5]: Solutions were obtained; also recorded: no solids after 24 h | Disproportionation experiment, outcome [5, 7]: Solutions obtained

NCCO [Ethanolamine]
Remained pattern after 40° C. [2]: Yes
